{
  "source": "patent US20140294854A1",
  "about": "“TARGET DIRECTED TO ADIPOCYTES, METHODS AND ASSAYS FOR TREATMENT OF OBESITY” (priority 2011, published 2014)",
  "key": {"ATGL": {"test_system": "ATGL", "assay": "ATGL degradation in WAT fat fragments, anti-ATGL immunoblot", "format": "cell-based, mouse", "details": "for ATGL concentrations on co-treatment with cycloheximide: B6 ob/ob fat co-treated with cycloheximide and the inhibitor", "description": "FIGS. 5A-5C. Regulation of ATGL expression through degradation pathways. (5A) ATGL mRNA level in WAT was determined by RT-qPCR (n=6). (5B) WAT fragments of BALB/c and B6 ob/ob mice were incubated for 5 hours with cycloheximide (CHX) and WAT protein lysates were immunoblotted using anti-ATGL to follow degradation rates of ATGL. (5C) B6 ob/ob WAT fragments were treated with MG132 (MG, proteasome inhibitor) and chloroquine (CQ, lysosome inhibitor). Protein extracts were analyzed by Western blot. Densitometry analysis was performed (5B,5C) and data are expressed as average ±SEM (n=6). Unpaired t-tests were performed, *P<0.05.\nThus, BALB/c ob/ob fat has long lived ATGL whereas C57BL/6 ob/ob fat has ATGL that is degraded within several hours. […] Thus, ATGL appears to be degraded by both the lysosomal and proteasomal pathways."}, "HSL": {"target": "T1, HSL (Mus musculus, UniProt P54310)", "T1 construct": "freshly dissected adipose tissue explants from BALB/c or B6 ob/ob inguinal fat pad; from tissue; host or cells: inguinal fat pad (white adipose tissue) explants of BALB/c and C57BL/6J ob/ob (Agrp-/-) mice", "T1 sequence (P54310 1-759)": "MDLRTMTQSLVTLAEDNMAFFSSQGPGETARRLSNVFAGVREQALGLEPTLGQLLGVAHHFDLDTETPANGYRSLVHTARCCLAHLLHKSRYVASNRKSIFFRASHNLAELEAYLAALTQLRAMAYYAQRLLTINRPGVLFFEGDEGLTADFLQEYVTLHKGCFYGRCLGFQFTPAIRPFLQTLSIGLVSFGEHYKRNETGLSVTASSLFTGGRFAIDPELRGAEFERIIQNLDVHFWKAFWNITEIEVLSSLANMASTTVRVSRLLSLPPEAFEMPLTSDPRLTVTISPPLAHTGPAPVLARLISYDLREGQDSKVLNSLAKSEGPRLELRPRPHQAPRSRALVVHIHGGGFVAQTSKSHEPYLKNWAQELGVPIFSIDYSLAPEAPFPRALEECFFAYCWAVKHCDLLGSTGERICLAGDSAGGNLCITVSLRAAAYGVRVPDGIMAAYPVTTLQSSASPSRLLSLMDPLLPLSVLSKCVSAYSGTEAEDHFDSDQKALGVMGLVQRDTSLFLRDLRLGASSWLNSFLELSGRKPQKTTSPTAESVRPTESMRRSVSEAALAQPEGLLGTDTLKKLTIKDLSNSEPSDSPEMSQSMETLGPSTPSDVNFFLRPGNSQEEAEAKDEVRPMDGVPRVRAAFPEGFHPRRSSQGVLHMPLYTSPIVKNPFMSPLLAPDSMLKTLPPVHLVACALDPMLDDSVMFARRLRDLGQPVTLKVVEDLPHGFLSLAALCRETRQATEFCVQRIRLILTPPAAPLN", "assay": "Free fatty acid release (lipolysis) from adipose tissue explants with the HSL inhibitor", "format": "cell-based", "text": "Free fatty acids (FFA) release from adipose tissue explants was further measured in presence or not of the HSL inhibitor CAY 10499. […] FFA release was compared from freshly dissected adipose tissue explants from BALB/c or B6 ob/ob inguinal fat pad. It was observed that FFA production was increased in explants from BALB/c relative to B6 ob/ob mice when HSL activity is inhibited by CAY10499. The same difference between BALB and B6 lipolysis (Δ^−CAY=[…] versus Δ^+CAY=397.1±8.1, P=0.31) without the HSL inhibitor (i.e. HSL+ATGL activity) or with CAY10499 (i.e. ATGL activity), respectively. […] Of note, the increased ATGL activity is greater than the increase in ATGL protein content in adipose tissue. This may be due to the concomitant increase of CGI-58 expression that is known to enhance ATGL lipolytic activity."}},
  "note": "Residues, ends and D or L forms follow the SMILES beside them. *: point of attachment. Cbz = O=C(OCc1ccccc1)*",
  "data": [
    {"smiles": "CC(C)C[C@@H](C=O)NC(=O)[C@H](CC(C)C)NC(=O)[C@H](CC(C)C)NC(=O)OCc1ccccc1", "note": "[MG-132] (Cbz-Leu-Leu-Leu-aldehyde)", "values": [
      {"measurement": "ATGL concentrations on co-treatment with cycloheximide", "setting": "ATGL", "result": "ATGL concentrations persisted"}
    ]},
    {"smiles": "C[C@@H]1C[C@@H]([C@H](O)CC2CC(=O)NC(=O)C2)C(=O)[C@@H](C)C1", "note": "[cycloheximide]", "values": [
      {"measurement": "ATGL concentrations after cycloheximide treatment", "setting": "ATGL; fat fragments from B6 ob/ob mice, incubated 5 hours", "result": "dramatic reduction in ATGL concentrations"},
      {"measurement": "ATGL amounts after cycloheximide treatment", "setting": "ATGL; fat fragments from BALB/c ob/ob mice, incubated 5 hours", "result": "no alteration in ATGL amounts"}
    ]},
    {"smiles": "COc1nn(-c2ccc(NC(=O)OCc3ccccc3)c(C)c2)c(=O)o1", "note": "[CAY10499]", "values": [
      {"measurement": "Lipolysis induced with selective β3AR agonist CL316,243", "setting": "HSL; in presence of 100 μM CAY10499", "result": "blunted"},
      {"measurement": "Difference between BALB and B6 lipolysis (Δ+CAY), FFA release", "setting": "HSL; inguinal fat pad explants of BALB/c vs B6 ob/ob with CAY10499 (i.e. ATGL activity), P=0.31 versus without inhibitor", "result": "397.1±8.1"}
    ]},
    {"smiles": "CCN(CC)CCCC(C)Nc1ccnc2cc(Cl)ccc12", "note": "(stereo not drawn) [chloroquine]", "values": [
      {"measurement": "ATGL concentrations on co-treatment with cycloheximide", "setting": "ATGL", "result": "ATGL concentrations persisted"}
    ]}
  ]
}
